EP4596574A1, “GLP-1/GCG/GIP TRIPLE-RECEPTOR AGONIST AND USE THEREOF” (Sunshine Lake Pharma Co., Ltd., priority 2022, dated 2024)
pEC50: −log10 of the molar value. Starred links: 1 amine or outer side, 2 acyl side, 3 side chain; linkers in the order of their positions; H or OH if unused. Non-standard residues stand in square brackets, D forms with d. Residues, ends and D or L forms follow the SMILES beside them. Groups on a side chain read outwards from the residue. *: point of attachment. C18 diacid = O=C(O)CCCCCCCCCCCCCCCCC(=O)*; αMePhe(2-F) = C[C@](N)(Cc1ccccc1F)C(=O)O; γGlu = O=C(O)[C@H](CCC(=O)[*:2])N[*:1]; AEEA = NCCOCCOCC(=O)O; Aib = CC(C)(N)C(=O)O

How the values were obtained:
Type in all cases: cell-based
GIPR = target: T1, GIPR (Homo sapiens, UniProt P48546); assay: In vitro cell activity, cAMP production in HEK293 cells expressing GIPR; details: HEK293-GIPR cells, cAMP; read-out: GIPR (EC50)
T1 construct: expressed in transfected cells; host or cells: HEK293 (HEK293-GIPR)
T1 sequence (P48546 22-466): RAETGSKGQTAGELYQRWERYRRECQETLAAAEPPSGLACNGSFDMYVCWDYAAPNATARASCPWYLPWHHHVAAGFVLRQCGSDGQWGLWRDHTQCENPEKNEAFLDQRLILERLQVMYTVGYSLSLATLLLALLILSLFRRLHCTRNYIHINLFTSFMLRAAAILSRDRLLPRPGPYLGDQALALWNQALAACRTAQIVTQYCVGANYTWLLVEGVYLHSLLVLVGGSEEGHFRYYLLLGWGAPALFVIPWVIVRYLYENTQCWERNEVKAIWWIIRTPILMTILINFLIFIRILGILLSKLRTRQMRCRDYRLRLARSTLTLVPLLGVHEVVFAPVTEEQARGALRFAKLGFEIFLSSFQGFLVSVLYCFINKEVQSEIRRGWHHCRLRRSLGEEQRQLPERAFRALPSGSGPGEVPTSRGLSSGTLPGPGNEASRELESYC
In short: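 cAMP accumulation is quantified by homogeneous TR-FRET (cAMP-d2 plus anti-cAMP cryptate) in GIPR-expressing HEK293 cells seeded from a 4×10^5 cells/mL suspension and treated with compound. The signal ratio is plotted against concentration and fitted to a four-parameter curve to give EC50.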

GCGR = target: T2, GCGR (Homo sapiens, UniProt P47871); assay: In vitro cell activity, cAMP production in HEK293 cells expressing GCGR; details: HEK293-GCGR cells, cAMP; read-out: GCGR (EC50)
T2 construct: expressed in transfected cells; host or cells: HEK293 (HEK293-GCGR)
T2 sequence (P47871 26-477, species assumed): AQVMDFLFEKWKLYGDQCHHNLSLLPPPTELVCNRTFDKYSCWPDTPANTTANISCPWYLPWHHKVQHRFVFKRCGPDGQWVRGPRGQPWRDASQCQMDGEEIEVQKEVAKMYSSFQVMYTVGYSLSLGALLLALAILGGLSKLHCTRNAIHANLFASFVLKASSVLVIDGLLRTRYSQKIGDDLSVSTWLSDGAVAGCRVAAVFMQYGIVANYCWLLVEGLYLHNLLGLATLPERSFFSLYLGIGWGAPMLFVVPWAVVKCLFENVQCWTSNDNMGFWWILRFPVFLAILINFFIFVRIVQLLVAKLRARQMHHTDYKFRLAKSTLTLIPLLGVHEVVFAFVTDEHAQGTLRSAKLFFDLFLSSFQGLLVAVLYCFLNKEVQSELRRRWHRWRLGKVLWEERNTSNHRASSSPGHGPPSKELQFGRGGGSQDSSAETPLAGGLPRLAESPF
In short: (§1)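 Cells were plated at 4×10^5 cells/mL, and detection reagents (cAMP-d2, anti-cAMP cryptate, 1:1) were incubated 1 h at room temperature in the dark or overnight at 4 °C.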

GLP-1R = target: T3, GLP-1R (Homo sapiens, UniProt P43220); assay: In vitro cell activity, cAMP production in HEK293 cells expressing GLP-1R; details: HEK293-GLP-1R cells, cAMP; read-out: GLP-1R (EC50)
T3 construct: expressed in transfected cells; host or cells: HEK293 (HEK293-GLP-1R)
T3 sequence (P43220 24-463, species assumed): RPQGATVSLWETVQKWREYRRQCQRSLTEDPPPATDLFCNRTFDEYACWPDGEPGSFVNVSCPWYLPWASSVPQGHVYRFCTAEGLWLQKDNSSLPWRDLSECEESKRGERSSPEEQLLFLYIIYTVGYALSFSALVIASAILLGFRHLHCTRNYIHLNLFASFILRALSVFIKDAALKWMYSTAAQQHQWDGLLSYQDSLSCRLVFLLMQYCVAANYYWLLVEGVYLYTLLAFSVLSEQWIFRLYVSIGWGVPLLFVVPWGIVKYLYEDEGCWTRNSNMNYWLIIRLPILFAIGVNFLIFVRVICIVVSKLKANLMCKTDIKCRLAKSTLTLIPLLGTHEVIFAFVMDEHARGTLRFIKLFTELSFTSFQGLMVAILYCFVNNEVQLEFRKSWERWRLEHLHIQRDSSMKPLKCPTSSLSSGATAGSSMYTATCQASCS
In short: as §1

| Structure (SMILES) | pEC50 (GIPR) | pEC50 (GCGR) | pEC50 (GLP-1R) |
| --- | --- | --- | --- |
| CC[C@H](C)[C@H](NC(=O)[C@H](CCCCN)NC(=O)[C@H](CC(=O)O)NC(=O)[C@H](CCCCNC(=O)COCCOCCNC(=O)CC[C@H](NC(=O)CCCCCCCCCCCCCCCCC(=O)O)C(=O)O)NC(=O)[C@H](CC(C)C)NC(=O)[C@@H](NC(=O)[C@H](CO)NC(=O)[C@H](Cc1ccc(O)cc1)NC(=O)[C@H](CC(=O)O)NC(=O)[C@H](CO)NC(=O)[C@@H](NC(=O)[C@](C)(Cc1ccccc1F)NC(=O)[C@@H](NC(=O)CNC(=O)[C@H](CCC(N)=O)NC(=O)C(C)(C)NC(=O)[C@@H](N)Cc1ccc(O)cc1)[C@@H](C)O)[C@@H](C)O)[C@@H](C)CC)C(=O)N[C@@H](C)C(=O)N[C@@H](CCC(N)=O)C(=O)N[C@@H](CCCCN)C(=O)N[C@@H](C)C(=O)N[C@@H](Cc1ccccc1)C(=O)N[C@H](C(=O)N[C@@H](CCC(=O)O)C(=O)N[C@@H](Cc1ccc(O)cc1)C(=O)N[C@@H](CC(C)C)C(=O)N[C@@H](CC(C)C)C(=O)N[C@@H](CCC(=O)O)C(=O)NCC(=O)NCC(=O)N1CCC[C@H]1C(=O)N[C@@H](CO)C(=O)N[C@@H](CO)C(=O)NCC(=O)N[C@@H](C)C(=O)N1CCC[C@H]1C(=O)N1CCC[C@H]1C(=O)N1CCC[C@H]1C(=O)N[C@@H](CO)C(N)=O)[C@@H](C)CC [HEC-PT141] (H-Y[Aib]QGT[αMePhe(2-F)]TSDYSILK([AEEA-γGlu-C18 diacid])DKIAQKAFIEYLLEGGPSSGAPPPS-NH2) | 10.02 | 9.67 | 9.79 |
| CC[C@H](C)[C@H](NC(=O)[C@H](Cc1ccccc1)NC(=O)[C@H](C)NC(=O)[C@H](CCCNC(=N)N)NC(=O)[C@H](CCC(N)=O)NC(=O)[C@H](CCCNC(=N)N)NC(=O)[C@H](CCCCNC(=O)COCCOCCNC(=O)CC[C@H](NC(=O)CCCCCCCCCCCCCCCCC(=O)O)C(=O)O)NC(=O)[C@H](CCC(=O)O)NC(=O)[C@H](CC(=O)O)NC(=O)[C@H](CC(C)C)NC(=O)[C@H](CC(C)C)NC(=O)[C@@H](NC(=O)[C@H](CO)NC(=O)[C@H](Cc1ccc(O)cc1)NC(=O)[C@H](CC(=O)O)NC(=O)[C@H](CO)NC(=O)[C@@H](NC(=O)[C@](C)(Cc1ccccc1F)NC(=O)[C@@H](NC(=O)CNC(=O)[C@H](CCC(N)=O)NC(=O)C(C)(C)NC(=O)[C@@H](N)Cc1ccc(O)cc1)[C@@H](C)O)[C@@H](C)O)[C@@H](C)CC)C(=O)N[C@@H](CCC(=O)O)C(=O)N[C@@H](Cc1ccc(O)cc1)C(=O)N[C@@H](CC(C)C)C(=O)N[C@@H](CC(C)C)C(=O)N[C@@H](C)C(=O)NCC(=O)NCC(=O)N1CCC[C@H]1C(=O)N[C@@H](CO)C(=O)N[C@@H](CO)C(=O)NCC(=O)N[C@@H](C)C(=O)N1CCC[C@H]1C(=O)N1CCC[C@H]1C(=O)N1CCC[C@H]1C(=O)N[C@@H](CO)C(=O)O [HEC-PT134] | 9.68 | 9.06 | 9.84 |
| CC[C@H](C)[C@H](NC(=O)[C@H](Cc1ccccc1)NC(=O)[C@H](CCC(=O)O)NC(=O)[C@H](CCC(N)=O)NC(=O)[C@H](CCC(N)=O)NC(=O)[C@H](CCCNC(=N)N)NC(=O)[C@H](CCCCNC(=O)COCCOCCNC(=O)CC[C@H](NC(=O)CCCCCCCCCCCCCCCCCCC(=O)O)C(=O)O)NC(=O)[C@H](CCCNC(=N)N)NC(=O)[C@H](CC(=O)O)NC(=O)[C@H](CC(C)C)NC(=O)[C@H](CC(C)C)NC(=O)[C@@H](NC(=O)[C@H](CO)NC(=O)[C@H](Cc1ccc(O)cc1)NC(=O)[C@H](CC(=O)O)NC(=O)[C@H](CO)NC(=O)[C@@H](NC(=O)[C@](C)(Cc1ccccc1F)NC(=O)[C@@H](NC(=O)CNC(=O)[C@H](CCC(N)=O)NC(=O)C(C)(C)NC(=O)[C@@H](N)Cc1ccc(O)cc1)[C@@H](C)O)[C@@H](C)O)[C@@H](C)CC)C(=O)N[C@@H](CCC(=O)O)C(=O)N[C@@H](Cc1c[nH]c2ccccc12)C(=O)N[C@@H](CC(C)C)C(=O)N[C@@H](CC(C)C)C(=O)N[C@@H](C)C(=O)NCC(=O)NCC(=O)N1CCC[C@H]1C(=O)N[C@@H](CO)C(=O)N[C@@H](CO)C(=O)NCC(=O)N[C@@H](C)C(=O)N1CCC[C@H]1C(=O)N1CCC[C@H]1C(=O)N1CCC[C@H]1C(=O)N[C@@H](CO)C(=O)O [HEC-PT127] | 10.33 | 10.15 | 9.90 |
| CC[C@H](C)[C@H](NC(=O)[C@H](Cc1ccccc1)NC(=O)[C@H](C)NC(=O)[C@H](CCC(N)=O)NC(=O)[C@H](CCC(N)=O)NC(=O)[C@H](C)NC(=O)[C@H](CCCCNC(=O)COCCOCCNC(=O)CC[C@H](NC(=O)CCCCCCCCCCCCCCCCCCC(=O)O)C(=O)O)NC(=O)[C@H](CCC(=O)O)NC(=O)[C@H](CC(=O)O)NC(=O)[C@H](CC(C)C)NC(=O)[C@H](CC(C)C)NC(=O)[C@@H](NC(=O)[C@H](CO)NC(=O)[C@H](Cc1ccc(O)cc1)NC(=O)[C@H](CC(=O)O)NC(=O)[C@H](CO)NC(=O)[C@@H](NC(=O)[C@](C)(Cc1ccccc1F)NC(=O)[C@@H](NC(=O)CNC(=O)[C@H](CCC(N)=O)NC(=O)C(C)(C)NC(=O)[C@@H](N)Cc1ccc(O)cc1)[C@@H](C)O)[C@@H](C)O)[C@@H](C)CC)C(=O)N[C@@H](CCC(=O)O)C(=O)N[C@@H](Cc1ccc(O)cc1)C(=O)N[C@@H](CC(C)C)C(=O)N[C@@H](CC(C)C)C(=O)N[C@@H](CCC(=O)O)C(=O)NCC(=O)NCC(=O)N1CCC[C@H]1C(=O)N[C@@H](CO)C(=O)N[C@@H](CO)C(=O)NCC(=O)N[C@@H](C)C(=O)N1CCC[C@H]1C(=O)N1CCC[C@H]1C(=O)N1CCC[C@H]1C(=O)N[C@@H](CO)C(=O)O [HEC-PT68] | 9.70 | 9.13 | 9.38 |
| CC[C@H](C)[C@H](NC(=O)[C@H](CCCCN)NC(=O)[C@H](CC(=O)O)NC(=O)[C@H](CCCCNC(=O)COCCOCCNC(=O)CC[C@H](NC(=O)CCCCCCCCCCCCCCCCC(=O)O)C(=O)O)NC(=O)[C@H](CC(C)C)NC(=O)[C@@H](NC(=O)[C@H](CO)NC(=O)[C@H](Cc1ccc(O)cc1)NC(=O)[C@H](CC(=O)O)NC(=O)[C@H](CO)NC(=O)[C@@H](NC(=O)[C@](C)(Cc1ccccc1F)NC(=O)[C@@H](NC(=O)CNC(=O)[C@H](CCC(N)=O)NC(=O)C(C)(C)NC(=O)[C@@H](N)Cc1ccc(O)cc1)[C@@H](C)O)[C@@H](C)O)[C@@H](C)CC)C(=O)N[C@@H](C)C(=O)N[C@@H](CCC(N)=O)C(=O)NC(C)(C)C(=O)N[C@@H](C)C(=O)N[C@@H](Cc1ccccc1)C(=O)N[C@H](C(=O)N[C@@H](CCC(=O)O)C(=O)N[C@@H](Cc1ccc(O)cc1)C(=O)N[C@@H](CC(C)C)C(=O)N[C@@H](CC(C)C)C(=O)N[C@@H](C)C(=O)NCC(=O)NCC(=O)N1CCC[C@H]1C(=O)N[C@@H](CO)C(=O)N[C@@H](CO)C(=O)NCC(=O)N[C@@H](C)C(=O)N1CCC[C@H]1C(=O)N1CCC[C@H]1C(=O)N1CCC[C@H]1C(=O)N[C@@H](CO)C(N)=O)[C@@H](C)CC [HEC-PT139] (H-Y[Aib]QGT[αMePhe(2-F)]TSDYSILK([AEEA-γGlu-C18 diacid])DKIAQ[Aib]AFIEYLLAGGPSSGAPPPS-NH2) | 10.44 | 10.09 | 9.80 |
| CC[C@H](C)[C@H](NC(=O)[C@H](CO)NC(=O)[C@H](Cc1ccc(O)cc1)NC(=O)[C@H](CC(=O)O)NC(=O)[C@H](CO)NC(=O)[C@@H](NC(=O)[C@](C)(Cc1ccccc1F)NC(=O)[C@@H](NC(=O)CNC(=O)[C@H](CCC(N)=O)NC(=O)C(C)(C)NC(=O)[C@@H](N)Cc1ccc(O)cc1)[C@@H](C)O)[C@@H](C)O)C(=O)N[C@@H](CC(C)C)C(=O)N[C@@H](CC(C)C)C(=O)N[C@@H](CC(=O)O)C(=O)N[C@@H](CCC(=O)O)C(=O)N[C@@H](CCCCNC(=O)COCCOCCNC(=O)CC[C@H](NC(=O)CCCCCCCCCCCCCCCCC(=O)O)C(=O)O)C(=O)N[C@@H](CCCNC(=N)N)C(=O)N[C@@H](CCC(N)=O)C(=O)NC(C)(C)C(=O)N[C@@H](CCC(=O)O)C(=O)N[C@@H](Cc1ccccc1)C(=O)N[C@H](C(=O)N[C@@H](CCC(=O)O)C(=O)N[C@@H](Cc1c[nH]c2ccccc12)C(=O)N[C@@H](CC(C)C)C(=O)N[C@@H](CC(C)C)C(=O)N[C@@H](C)C(=O)NCC(=O)NCC(=O)N1CCC[C@H]1C(=O)N[C@@H](CO)C(=O)N[C@@H](CO)C(=O)NCC(=O)N[C@@H](C)C(=O)N1CCC[C@H]1C(=O)N1CCC[C@H]1C(=O)N1CCC[C@H]1C(=O)N[C@@H](CO)C(N)=O)[C@@H](C)CC [HEC-PT110] | 10.35 | 8.88 | 9.94 |
